Assay results from patent US20230190754A1, “Therapeutic combinations for the treatment of Progressive Fibrosing interstitial lung diseases” (Boehringer Ingelheim International GmbH, priority 2021, published 2023).

Tested on: IPF patients
Experiment: Phase II clinical trial in IPF patients: Treatment Emergent Adverse Events (safety/tolerability), up to 13 weeks
[1] = AF-group (antifibrotic background), 18 mg b.i.d.

## [O-][S@+]1CCc2nc(N3CCC(c4ncc(Cl)cn4)CC3)nc(NC3(CO)CCC3)c21 [Comp. of form. III]
AF Ninted., N = 26
  Arthralgia, %: (7.7) %
  Bronchitis, %: (3.8) %
  Condition aggravated, %: (3.8) %
  Cough, %: (7.7) %
  Decreased appetite, %: (7.7) %
  Diarrhoea, %: (46.2) %
  Dyspepsia, %: (3.8) %
  Fatigue, %: (3.8) %
  Flatulence, %: (3.8) %
  Gastrointestinal disorders, %: (46.2) %
  General Disorders and Administration Side conditions, %: (19.2) %
  Headache, %: (7.7) %
  Infections and infestations, %: (23.1) %
  Investigations, %: (26.9) %
  Metabolism and nutrition disorders, %: (11.5) %
  Musculoskeletal and connective tissue disorders, %: (7.7) %
  Nasopharyngitis, %: (15.4) %
  Nervous system disorders, %: (15.4) %
  Oedema peripheral, %: (3.8) %
  Pyrexia, %: (2.1) %
  Respiratory, thoracic and mediastinal disorders, %: (11.5) %
  Vomiting, %: (3.8) %
AF Pirf., N = 15
  Abdominal Pain, %: (4.3) %
  Asthenia, %: (4.3) %
  Condition aggravated, %: (4.3) %
  Constipation, %: (4.3) %
  Cough, %: (8.7) %
  Diarrhoea, %: (13.0) %
  Dizziness, %: (4.3) %
  Dyspepsia, %: (4.3) %
  Fatigue, %: (4.3) %
  Flatulence, %: (4.3) %
  Gastrointestinal disorders, %: (26.1) %
  General Disorders and Administration Side conditions, %: (8.7) %
  Headache, %: (4.3) %
  Infections and infestations, %: (4.3) %
  Investigations, %: (13.0) %
  Musculoskeletal and connective tissue disorders, %: (4.3) %
  Nausea, %: (4.3) %
  Nervous system disorders, %: (21.7) %
  Respiratory, thoracic and mediastinal disorders, %: (13.0) %
  Rhinorrhoea, %: (4.3) %
  Vomiting, %: (4.3) %
[1]
  AE resulting in death, patients %: (2.0) %
  AE resulting in death, patients n: 1
  AE: Abdominal pain, patients %: (2.0) %
  AE: Abdominal pain, patients n: 1
  AE: Arthralgia, patients %: (4.1) %
  AE: Arthralgia, patients n: 2
  AE: Asthenia, patients %: (2.0) %
  AE: Asthenia, patients n: 1
  AE: Bronchitis, patients %: (2.0) %
  AE: Bronchitis, patients n: 1
  AE: Condition aggravated, patients %: (4.1) %
  AE: Condition aggravated, patients n: 2
  AE: Constipation, patients %: (2.0) %
  AE: Constipation, patients n: 1
  AE: Cough, patients %: (8.2) %
  AE: Cough, patients n: 4
  AE: Decreased appetite, patients %: (4.1) %
  AE: Decreased appetite, patients n: 2
  AE: Diarrhoea, patients %: 30.6%
  AE: Diarrhoea, patients n: 15
  AE: Dizziness, patients %: (2.0) %
  AE: Dizziness, patients n: 1
  AE: Dyspepsia, patients %: (4.1) %
  AE: Dyspepsia, patients n: 2
  AE: Fatigue, patients %: (2.0) %
  AE: Fatigue, patients n: 1
  AE: Flatulence, patients %: (4.1) %
  AE: Flatulence, patients n: 2
  AE: Gastrointestinal disorders, patients %: 36.7%
  AE: Gastrointestinal disorders, patients n: 18
  AE: General disorders and administration site conditions, patients %: (14.3) %
  AE: General disorders and administration site conditions, patients n: 7
  AE: Headache, patients %: (6.1) %
  AE: Headache, patients n: 3
  AE: Infections and infestations, patients %: (14.3) %
  AE: Infections and infestations, patients n: 7
  AE: Investigations, patients %: (20.4) %
  AE: Investigations, patients n: 10
  AE: Metabolism and nutrition disorders, patients %: (6.1) %
  AE: Metabolism and nutrition disorders, patients n: 3
  AE: Musculoskeletal and connective tissue disorders, patients %: (6.1) %
  AE: Musculoskeletal and connective tissue disorders, patients n: 3
  AE: Nasopharyngitis, patients %: (8.2) %
  AE: Nasopharyngitis, patients n: 4
  AE: Nausea, patients %: (2.0) %
  AE: Nausea, patients n: 1
  AE: Nervous system disorders, patients %: (18.4) %
  AE: Nervous system disorders, patients n: 9
  AE: Oedema peripheral, patients %: (2.0) %
  AE: Oedema peripheral, patients n: 1
  AE: Pyrexia, patients %: (2.0) %
  AE: Pyrexia, patients n: 1
  AE: Respiratory, thoracic and mediastinal disorders, patients %: (12.2) %
  AE: Respiratory, thoracic and mediastinal disorders, patients n: 6
  AE: Rhinorrhoea, patients %: (2.0) %
  AE: Rhinorrhoea, patients n: 1
  AE: Vomiting, patients %: (4.1) %
  AE: Vomiting, patients n: 2
  AE: Weight decreased, patients %: (2.0) %
  AE: Weight decreased, patients n: 1
  AEs leading to discontinuation of trial drug, patients %: (20.4) %
  AEs leading to discontinuation of trial drug, patients n: 10
  Any AE, patients n: 36
  SAE: Condition aggravated, patients %: (4.1) %
